Assay results reported in US20010000731A1, “Method for the prevention and treatment of chronic venous insufficiency” (priority 1999, published 2001).

Tested on: swelling of the recto-anus induced by croton oil
Assay: Croton oil-induced hemorrhoid model in rats (recto-anus coefficient, RAC)
Format: in vivo, rat
Details: male SD rats; pure alkaloid oral 1 mg/kg; RAC determined 24 hours after induction; FIG. 3
Description: Male SD rats (6 weeks old, approximately 140 g) were purchased from Harlan Sprague Dawley and allowed to acclimate for 1 week. The rats were maintained in a pathogen-free facility in accordance with the National Research Council of Laboratory Animal care and use guidelines. Each experiment was preformed with age-matched rats 7- 8 weeks old. The croton oil-induced hemorrhoid model in rats was performed according to the method published by Nishiki (Nishiki et al. (1988) Folia Pharmacology Japan 92:215- 225; Nishiki et al. (1988) Folia Pharmacol. Japan 92:227-240). Briefly, a cotton swab with a diameter of 4 mm soaked with 0.16 mL of inducer (deionized water: pyridine : ethyl ether: 6% croton oil/ethyl ether (1:4:5:10) was applied to the rat's anus for 12 seconds. The final concentration of croton oil was 3%. The edema developed linearly until 7-8 hours after application and the severity of the edema was sustained for more than 24 hours. Twenty-four hours later, recto-anus tissue (approx. 10 mm long) was isolated after the rats were euthanized. The weights of rat body and recto-anus were measured. The recto-anus coefficient (RAC) was calculated using the formula: weight of recto-anus (mg)/body weight (g).
The average RAC of croton oil-treated rats was 2.10, which was 38.2% higher than that the rats treated with vehicle only (RAC=1.52). Vehicle alone did cause significant swelling of the recto-anus as compared with the rats without any treatment (RAC=0.98). Twenty-four hours after hemorrhoid induction with croton oil followed by treatment orally with prickly ash extract at either 6 mg/kg or 30 mg/kg and by treatment topically with prickly ash extract at 6 mg/mL in 1:1 aquaphor, the RAC of rats was determined.
This experiment was performed as described in Example 5. […] Twenty-four hours after hemorrhoid induction with croton oil followed by treatment orally with the pure alkaloids isolated from prickly ash extract at 1 mg/kg, the RAC of rats was determined. […]

Row | Molecule | inhibition of the swelling of the recto-anus induced by croton oil (RAC)
1 | COc1cc2c(cc1O)C[C@H]1c3c(cc(OC)c(O)c3-2)CC[N+]1(C)C [Laurifoline] | partially reduced
2 | COc1ccc2c(c1O)-c1c(O)c(OC)cc3c1[C@H](C2)[N+](C)(C)CC3 [Magnoflorine] | completely inhibited
3 | Chelerythrine | partially reduced
